{"source": "patent US20230293407A1", "about": "“Compositions Comprising (Bio)-Alkanediols with Antimicrobials for Product Protection” (Symrise AG, priority 2020, published 2023)", "assay_in_all_cases": "preservation efficacy test (PET), European Pharmacopoeia 5.1.3", "format_in_all_cases": "cell-based", "key": {"Pseudomonas aeruginosa": {"tested_on": "Pseudomonas aeruginosa"}, "Escherichia coli": {"tested_on": "Escherichia coli", "settings": "for count at 2 days / count at 7 days / count at 14 days / count at 28 days: EC, use concentration in label"}, "Candida albicans": {"tested_on": "Candida albicans", "settings": "for CA germ count, 2 days: 2 days after inoculation; for CA germ count, 2 days / CA germ count, 7 days / CA germ count, 14 days / CA germ count, 28 days: substance at given % in test formulation; for count at 14 days / count at 28 days: CA, use concentration in label"}, "Staphylococcus aureus": {"tested_on": "Staphylococcus aureus", "settings": "for count at 2 days / count at 7 days / count at 14 days / count at 28 days: SA, use concentration in label"}, "Aspergillus brasiliensis": {"tested_on": "Aspergillus brasiliensis"}, "[1]": {"settings": "2 days after inoculation, substance at given % in test formulation"}, "[2]": {"settings": "7 days after inoculation, substance at given % in test formulation"}, "[3]": {"settings": "14 days after inoculation, substance at given % in test formulation"}, "[4]": {"settings": "28 days after inoculation, substance at given % in test formulation"}, "[5]": {"settings": "PA, 28 days after inoculation, use concentration in label"}, "[6]": {"settings": "2 days after inoculation, o/w emulsion (Table 53)"}, "[7]": {"settings": "7 days after inoculation, o/w emulsion (Table 53)"}, "[8]": {"settings": "14 days after inoculation, o/w emulsion (Table 53)"}, "[9]": {"settings": "28 days after inoculation, o/w emulsion (Table 53)"}, "[10]": {"settings": "in wet wipes, 7 days after inoculation"}, "[11]": {"settings": "in wet wipes, 14 days after inoculation"}, "[12]": {"settings": "in wet wipes, 28 days after inoculation"}}, "note": "Several values for one entry are separate records, joined by “and”; a condition that tells them apart may be missing. Identical values can stand only once. Like-named read-outs stand apart in the source and are kept apart here.", "data": [{"smiles": "CCCCCCC(O)CO", "note": "(centres unmarked) [0.2% 1,2-octanediol]", "values": [{"measurement": "PA germ count, 2 days", "setting": "Pseudomonas aeruginosa; [1]", "result": 1}, {"measurement": "PA germ count, 7 days", "setting": "Pseudomonas aeruginosa; [2]", "result": 1}, {"measurement": "PA germ count, 14 days", "setting": "Pseudomonas aeruginosa; [3]", "result": 1}, {"measurement": "PA germ count, 28 days", "setting": "Pseudomonas aeruginosa; [4]", "result": 1}, {"measurement": "EC germ count, 2 days", "setting": "Escherichia coli; [1]", "result": 1}, {"measurement": "EC germ count, 7 days", "setting": "Escherichia coli; [2]", "result": 1}, {"measurement": "EC germ count, 14 days", "setting": "Escherichia coli; [3]", "result": 1}, {"measurement": "EC germ count, 28 days", "setting": "Escherichia coli; [4]", "result": 1}, {"measurement": "CA germ count, 2 days", "setting": "Candida albicans", "result": 950.000}, {"measurement": "CA germ count, 7 days", "setting": "Candida albicans; 7 days after inoculation", "result": 15.000}, {"measurement": "CA germ count, 14 days", "setting": "Candida albicans; 14 days after inoculation", "result": 36}, {"measurement": "CA germ count, 28 days", "setting": "Candida albicans; 28 days after inoculation", "result": 1}, {"measurement": "SA germ count, 2 days", "setting": "Staphylococcus aureus; [1]", "result": 1}, {"measurement": "SA germ count, 7 days", "setting": "Staphylococcus aureus; [2]", "result": 1}, {"measurement": "SA germ count, 14 days", "setting": "Staphylococcus aureus; [3]", "result": 1}, {"measurement": "SA germ count, 28 days", "setting": "Staphylococcus aureus; [4]", "result": 1}]}, {"smiles": "CCCCCC(O)CO", "note": "(centres unmarked) [0.3% 1.2-heptanediol]", "values": [{"measurement": "count at 2 days", "setting": "Pseudomonas aeruginosa; PA, 2 days after inoculation, use concentration in label", "result": 1}, {"measurement": "count at 7 days", "setting": "Pseudomonas aeruginosa; PA, 7 days after inoculation, use concentration in label", "result": 1}, {"measurement": "count at 14 days", "setting": "Pseudomonas aeruginosa; PA, 14 days after inoculation, use concentration in label", "result": 1}, {"measurement": "count at 28 days", "setting": "Pseudomonas aeruginosa; [5]", "result": 1}, {"measurement": "count at 2 days", "setting": "Escherichia coli; 2 days after inoculation", "result": 130.000}, {"measurement": "count at 7 days", "setting": "Escherichia coli; 7 days after inoculation", "result": 2.400}, {"measurement": "count at 14 days", "setting": "Escherichia coli; 14 days after inoculation", "result": 1}, {"measurement": "count at 28 days", "setting": "Escherichia coli; 28 days after inoculation", "result": 1}, {"measurement": "count at 14 days", "setting": "Candida albicans; 14 days after inoculation", "result": 260.000}, {"measurement": "count at 28 days", "setting": "Candida albicans; 28 days after inoculation", "result": 150.000}, {"measurement": "count at 2 days", "setting": "Staphylococcus aureus; 2 days after inoculation", "result": 16.000}, {"measurement": "count at 7 days", "setting": "Staphylococcus aureus; 7 days after inoculation", "result": 1}, {"measurement": "count at 14 days", "setting": "Staphylococcus aureus; 14 days after inoculation", "result": 1}, {"measurement": "count at 28 days", "setting": "Staphylococcus aureus; 28 days after inoculation", "result": 1}]}, {"smiles": "CCCCCCCC(=O)OCC(O)CO", "note": "(centres unmarked) [0.1% glyceryl caprylate]", "values": [{"measurement": "PA germ count, 2 days", "setting": "Pseudomonas aeruginosa; [1]", "result": 1.800}, {"measurement": "PA germ count, 7 days", "setting": "Pseudomonas aeruginosa; [2]", "result": 690}, {"measurement": "PA germ count, 14 days", "setting": "Pseudomonas aeruginosa; [3]", "result": 2.400}, {"measurement": "PA germ count, 28 days", "setting": "Pseudomonas aeruginosa; [4]", "result": 39.000}, {"measurement": "EC germ count, 2 days", "setting": "Escherichia coli; [1]", "result": 1}, {"measurement": "EC germ count, 7 days", "setting": "Escherichia coli; [2]", "result": 1}, {"measurement": "EC germ count, 14 days", "setting": "Escherichia coli; [3]", "result": 1}, {"measurement": "EC germ count, 28 days", "setting": "Escherichia coli; [4]", "result": 1}, {"measurement": "CA germ count, 2 days", "setting": "Candida albicans", "result": 990.000}, {"measurement": "CA germ count, 7 days", "setting": "Candida albicans; 7 days after inoculation", "result": 690.000}, {"measurement": "CA germ count, 14 days", "setting": "Candida albicans; 14 days after inoculation", "result": 280.000}, {"measurement": "CA germ count, 28 days", "setting": "Candida albicans; 28 days after inoculation", "result": 220.000}, {"measurement": "SA germ count, 2 days", "setting": "Staphylococcus aureus; [1]", "result": 15.000}, {"measurement": "SA germ count, 7 days", "setting": "Staphylococcus aureus; [2]", "result": 1}, {"measurement": "SA germ count, 14 days", "setting": "Staphylococcus aureus; [3]", "result": 1}, {"measurement": "SA germ count, 28 days", "setting": "Staphylococcus aureus; [4]", "result": 1}]}, {"smiles": "O=C([O-])c1ccccc1.[Na+]", "note": "[0.1% Sodium Benzoate]", "values": [{"measurement": "PA germ count, 28 days", "setting": "Pseudomonas aeruginosa", "result": "18.000 and 10"}, {"measurement": "AB germ count, 14 days", "setting": "Aspergillus brasiliensis", "result": 20.000}, {"measurement": "AB germ count, 28 days", "setting": "Aspergillus brasiliensis", "result": 4.800}, {"measurement": "SA germ count, 2 days", "setting": "Staphylococcus aureus", "result": "14.000 and 10"}, {"measurement": "SA germ count, 7 days", "setting": "Staphylococcus aureus", "result": "9.800 and 10"}]}, {"smiles": "CC(C)(C)C(=O)C(Oc1ccc(Cl)cc1)n1ccnc1", "note": "(centres unmarked) [0.4% Climbazole]", "values": [{"measurement": "count at 28 days", "setting": "Pseudomonas aeruginosa; [5]", "result": 940.000}, {"measurement": "count at 2 days", "setting": "Escherichia coli; 2 days after inoculation", "result": 940.000}, {"measurement": "count at 7 days", "setting": "Escherichia coli; 7 days after inoculation", "result": 810.000}, {"measurement": "count at 14 days", "setting": "Escherichia coli; 14 days after inoculation", "result": 690}, {"measurement": "count at 28 days", "setting": "Escherichia coli; 28 days after inoculation", "result": 1}, {"measurement": "count at 14 days", "setting": "Candida albicans; 14 days after inoculation", "result": 760.000}, {"measurement": "count at 28 days", "setting": "Candida albicans; 28 days after inoculation", "result": 72.000}, {"measurement": "count at 2 days", "setting": "Staphylococcus aureus; 2 days after inoculation", "result": 340.000}, {"measurement": "count at 7 days", "setting": "Staphylococcus aureus; 7 days after inoculation", "result": 1}, {"measurement": "count at 14 days", "setting": "Staphylococcus aureus; 14 days after inoculation", "result": 1}, {"measurement": "count at 28 days", "setting": "Staphylococcus aureus; 28 days after inoculation", "result": 1}]}, {"smiles": "CCCCCC(O)C(C)O", "note": "(centres unmarked) [0.1% 2,3-Octanediol]", "values": [{"measurement": "PA germ count, 14 days", "setting": "Pseudomonas aeruginosa; [3]", "result": 1}, {"measurement": "PA germ count, 28 days", "setting": "Pseudomonas aeruginosa; [4]", "result": 1}, {"measurement": "EC germ count, 2 days", "setting": "Escherichia coli; [1]", "result": 690.000}, {"measurement": "EC germ count, 7 days", "setting": "Escherichia coli; [2]", "result": 11.000}, {"measurement": "EC germ count, 14 days", "setting": "Escherichia coli; [3]", "result": 1.200}, {"measurement": "EC germ count, 28 days", "setting": "Escherichia coli; [4]", "result": 1}, {"measurement": "SA germ count, 7 days", "setting": "Staphylococcus aureus; [2]", "result": 9.500}, {"measurement": "SA germ count, 14 days", "setting": "Staphylococcus aureus; [3]", "result": 1}, {"measurement": "SA germ count, 28 days", "setting": "Staphylococcus aureus; [4]", "result": 1}]}, {"smiles": "CCCCCCC(O)C(C)O", "note": "(centres unmarked) [0.2% 2,3 Nonanediol]", "values": [{"measurement": "germ count PA, 2 days", "setting": "Pseudomonas aeruginosa; [6]", "result": 1}, {"measurement": "germ count PA, 7 days", "setting": "Pseudomonas aeruginosa; [7]", "result": 1}, {"measurement": "germ count PA, 14 days", "setting": "Pseudomonas aeruginosa; [8]", "result": 1}, {"measurement": "germ count PA, 28 days", "setting": "Pseudomonas aeruginosa; [9]", "result": 1}, {"measurement": "germ count EC, 2 days", "setting": "Escherichia coli; [6]", "result": 860.000}, {"measurement": "germ count EC, 7 days", "setting": "Escherichia coli; [7]", "result": 230.000}, {"measurement": "germ count EC, 14 days", "setting": "Escherichia coli; [8]", "result": 760}, {"measurement": "germ count EC, 28 days", "setting": "Escherichia coli; [9]", "result": 1}, {"measurement": "germ count CA, 7 days", "setting": "Candida albicans; [7]", "result": 440.000}, {"measurement": "germ count CA, 14 days", "setting": "Candida albicans; [8]", "result": 160.000}, {"measurement": "germ count CA, 28 days", "setting": "Candida albicans; [9]", "result": 3.800}, {"measurement": "germ count SA, 2 days", "setting": "Staphylococcus aureus; [6]", "result": 880}, {"measurement": "germ count SA, 7 days", "setting": "Staphylococcus aureus; [7]", "result": 1}, {"measurement": "germ count SA, 14 days", "setting": "Staphylococcus aureus; [8]", "result": 1}, {"measurement": "germ count SA, 28 days", "setting": "Staphylococcus aureus; [9]", "result": 1}]}, {"smiles": "CCCCCC(O)C(C)O", "note": "(centres unmarked) [0.1% 2,3-octanediol]", "values": [{"measurement": "PA germ count, 7 days", "setting": "Pseudomonas aeruginosa; [10]", "result": 630.000}, {"measurement": "PA germ count, 14 days", "setting": "Pseudomonas aeruginosa; [11]", "result": 310.000}, {"measurement": "PA germ count, 28 days", "setting": "Pseudomonas aeruginosa; [12]", "result": 27.000}, {"measurement": "EC germ count, 14 days", "setting": "Escherichia coli; [11]", "result": 850.000}, {"measurement": "EC germ count, 28 days", "setting": "Escherichia coli; [12]", "result": 1.600}, {"measurement": "SA germ count, 2 days", "setting": "Staphylococcus aureus; in wet wipes, 2 days after inoculation", "result": 50}, {"measurement": "SA germ count, 7 days", "setting": "Staphylococcus aureus; [10]", "result": 50}, {"measurement": "SA germ count, 14 days", "setting": "Staphylococcus aureus; [11]", "result": 50}, {"measurement": "SA germ count, 28 days", "setting": "Staphylococcus aureus; [12]", "result": 50}]}]}
